# Assay results as given in patent publication EP0908457B1, “3-(1,2-benzisothiazol- and isoxazol-5-Y1)-2,4(1H,3H)-pyrimidinedione or thione and 3-(1,2-benzisothiazol- and isoxazol-5-y1)-4(3H)-pyrimidinone or thione herbicidal agents” (BASF AKTIENGESELLSCHAFT, priority 1997, dated 1999).
# Columns and labels:
# [1] = tested on: Echinochloa oryzoides (Ard.) Fritsch.; assay: Preemergence weed control under flooded paddy conditions, ECHORC (Watergrass (Calif.)); assay type: in vivo; settings: flooded paddy; for ECHORC herbicidal effect rating: preemergence, rated three to four weeks after treatment; for ECHORC: preemergence weeds, herbicidal effect rating 0-9, three to four weeks after treatment
# [2] = tested on: Cyperus iria; assay: Preemergence weed control under flooded paddy conditions, CYPIR (Rice Flatsedge); assay type: in vivo; settings: flooded paddy; for CYPIR herbicidal effect rating: preemergence, rated three to four weeks after treatment; for CYPIR: preemergence weeds, herbicidal effect rating 0-9, three to four weeks after treatment
# [3] = tested on: Cyperus serotinus, Rottb.; assay: Preemergence weed control under flooded paddy conditions, CYPSE (Flatsedge); assay type: in vivo; settings: for CYPSE herbicidal effect rating: preemergence, rated three to four weeks after treatment; for CYPSE: preemergence weeds, herbicidal effect rating 0-9, three to four weeks after treatment
# [4] = tested on: Monochoria vaginalis, Presl.; assay: Preemergence weed control under flooded paddy conditions, MOOVA (Monochoria); assay type: in vivo; settings: flooded paddy; for MOOVA herbicidal effect rating: preemergence, rated three to four weeks after treatment; for MOOVA: preemergence weeds, herbicidal effect rating 0-9, three to four weeks after treatment
# [5] = tested on: Sagittaria pygmaea, L.; assay: Preemergence weed control under flooded paddy conditions, SAGPY (Arrowhead (Pygmaea)); assay type: in vivo; settings: flooded paddy; for SAGPY herbicidal effect rating: preemergence, rated three to four weeks after treatment; for SAGPY: preemergence weeds, herbicidal effect rating 0-9, three to four weeks after treatment
# [6] = tested on: Oryza sativa, (L.) Tebonnet; assay: Rice tolerance to post-transplant applications under flooded paddy conditions (Example 187), ORYSAT (Rice, Tebonnet); settings: for ORYSAT herbicidal effect rating: rated three to four weeks after treatment; for ORYSAT: herbicidal effect rating 0-9, three to four weeks after treatment
smiles,measurement,setting,value
"C=CCOc1nc(C(F)(F)F)cc(=O)n1-c1ccc2snc(-c3cc(C)ccc3OC)c2c1 [Example 245, 2-(Allyloxy)-3-[3-(6-methoxy-m-tolyl)-1,2-benzisothiazol-5-yl]-6-(trifluoromethyl)-4(3H)-pyrimidinone]",ECHORC herbicidal effect rating,[1]; Rate 0.0313 kg/ha,0.0
same,ECHORC herbicidal effect rating,[1]; Rate 0.0625 kg/ha,0.0
same,ECHORC herbicidal effect rating,[1]; Rate 0.1250 kg/ha,0.0
same,ECHORC herbicidal effect rating,[1]; Rate 0.2500 kg/ha,0.0
same,CYPIR herbicidal effect rating,[2]; Rate 0.0313 kg/ha,0.0
same,CYPIR herbicidal effect rating,[2]; Rate 0.0625 kg/ha,0.0
same,CYPIR herbicidal effect rating,[2]; Rate 0.1250 kg/ha,0.0
same,CYPIR herbicidal effect rating,[2]; Rate 0.2500 kg/ha,0.0
same,CYPSE herbicidal effect rating,[3]; Rate 0.0313 kg/ha,0.0
same,CYPSE herbicidal effect rating,[3]; Rate 0.0625 kg/ha,0.0
same,CYPSE herbicidal effect rating,[3]; Rate 0.1250 kg/ha,0.0
same,CYPSE herbicidal effect rating,[3]; Rate 0.2500 kg/ha,0.0
same,MOOVA herbicidal effect rating,[4]; Rate 0.0313 kg/ha,0.0
same,MOOVA herbicidal effect rating,[4]; Rate 0.0625 kg/ha,0.0
same,MOOVA herbicidal effect rating,[4]; Rate 0.1250 kg/ha,0.0
same,MOOVA herbicidal effect rating,[4]; Rate 0.2500 kg/ha,0.0
same,SAGPY herbicidal effect rating,[5]; Rate 0.0313 kg/ha,0.0
same,SAGPY herbicidal effect rating,[5]; Rate 0.0625 kg/ha,0.0
same,SAGPY herbicidal effect rating,[5]; Rate 0.1250 kg/ha,0.0
same,SAGPY herbicidal effect rating,[5]; Rate 0.2500 kg/ha,0.0
same,ORYSAT herbicidal effect rating,[6]; Rate 0.0313 kg/ha,0.0
same,ORYSAT herbicidal effect rating,[6]; Rate 0.0625 kg/ha,0.0
same,ORYSAT herbicidal effect rating,[6]; Rate 0.1250 kg/ha,0.0
same,ORYSAT herbicidal effect rating,[6]; Rate 0.2500 kg/ha,0.0
"Cn1c(C(F)(F)F)cc(=O)n(-c2ccc3snc(C(=O)NS(=O)(=O)Cc4ccc(OC(F)(F)F)cc4)c3c2)c1=O [Example 406, 1,2-Benzisothiazole-3-carboxamide, 5-[3,6-dihydro-3-methyl-2,6-dioxo-4-(trifluoromethyl)-1(2H)-pyrimidinyl]-N-{[p-(trifluoromethoxy)-benzyl]sulfonyl}-]",ECHORC,[1]; 0.0320 kg/ha,6.0
same,ECHORC,[1]; 0.0620 kg/ha,6.0
same,ECHORC,[1]; 0.1250 kg/ha,7.0
same,ECHORC,[1]; 0.2500 kg/ha,7.0
same,CYPIR,[2]; 0.0320 kg/ha,0.0
same,CYPIR,[2]; 0.0620 kg/ha,4.0
same,CYPIR,[2]; 0.1250 kg/ha,4.0
same,CYPIR,[2]; 0.2500 kg/ha,7.0
same,CYPSE,[3]; 0.0320 kg/ha,0.0
same,CYPSE,[3]; 0.0620 kg/ha,0.0
same,CYPSE,[3]; 0.1250 kg/ha,3.0
same,CYPSE,[3]; 0.2500 kg/ha,6.0
same,MOOVA,[4]; 0.0320 kg/ha,4.0
same,MOOVA,[4]; 0.0620 kg/ha,7.0
same,MOOVA,[4]; 0.1250 kg/ha,9.0
same,MOOVA,[4]; 0.2500 kg/ha,9.0
same,SAGPY,[5]; 0.0320 kg/ha,3.0
same,SAGPY,[5]; 0.0620 kg/ha,4.0
same,SAGPY,[5]; 0.1250 kg/ha,4.0
same,SAGPY,[5]; 0.2500 kg/ha,4.0
same,ORYSAT,[6]; 0.0320 kg/ha,0.0
same,ORYSAT,[6]; 0.0620 kg/ha,0.0
same,ORYSAT,[6]; 0.1250 kg/ha,2.0
same,ORYSAT,[6]; 0.2500 kg/ha,4.0
"Cn1c(C(F)(F)F)cc(=O)n(-c2ccc3snc(C(=O)NS(=O)(=O)Cc4ccccc4[N+](=O)[O-])c3c2)c1=O [Example 404, 1,2-Benzisothiazole-3-carboxamide, 5-[3,6-dihydro-3-methyl-2,6-dioxo-4-(trifluoromethyl)-1(2H)-pyrimidinyl]-N-[(o-nitrobenzyl)sulfonyl]-]",ECHORC,[1]; 0.0320 kg/ha,0.0
same,ECHORC,[1]; 0.0620 kg/ha,3.0
same,ECHORC,[1]; 0.1250 kg/ha,6.0
same,ECHORC,[1]; 0.2500 kg/ha,7.0
same,CYPIR,[2]; 0.0320 kg/ha,0.0
same,CYPIR,[2]; 0.0620 kg/ha,0.0
same,CYPIR,[2]; 0.1250 kg/ha,2.0
same,CYPIR,[2]; 0.2500 kg/ha,6.0
same,CYPSE,[3]; 0.0320 kg/ha,0.0
same,CYPSE,[3]; 0.0620 kg/ha,0.0
same,CYPSE,[3]; 0.1250 kg/ha,0.0
same,CYPSE,[3]; 0.2500 kg/ha,0.0
same,MOOVA,[4]; 0.0320 kg/ha,4.0
same,MOOVA,[4]; 0.0620 kg/ha,5.0
same,MOOVA,[4]; 0.1250 kg/ha,5.0
same,MOOVA,[4]; 0.2500 kg/ha,6.0
same,SAGPY,[5]; 0.0320 kg/ha,0.0
same,SAGPY,[5]; 0.0620 kg/ha,0.0
same,SAGPY,[5]; 0.1250 kg/ha,0.0
same,SAGPY,[5]; 0.2500 kg/ha,0.0
same,ORYSAT,[6]; 0.0320 kg/ha,0.0
same,ORYSAT,[6]; 0.0620 kg/ha,0.0
same,ORYSAT,[6]; 0.1250 kg/ha,0.0
same,ORYSAT,[6]; 0.2500 kg/ha,2.0
